≈ marks a conversion by molar mass, not a printed value.
Key:
[1] = tested on: Acinetobacter baumannii; experiment: Antibacterial activity against Acinetobacter baumannii ATCC 19606 after 16 to 20 hrs by microdilution susceptibility test; type: functional; conditions: ATCC 19606 = CIP 70.34 = JCM 6841
[2] = tested on: Acinetobacter baumannii; experiment: Antibacterial activity against Acinetobacter baumannii 3304 after 16 to 20 hrs by microdilution susceptibility test; type: functional
[3] = tested on: Acinetobacter baumannii; experiment: Antibacterial activity against multidrug-resistant Acinetobacter baumannii BAA-1605 after 16 to 20 hrs by microdilution susceptibility test; type: functional
[4] = tested on: Acinetobacter baumannii; experiment: Antibacterial activity against Acinetobacter baumannii UH8407 after 16 to 20 hrs by microdilution susceptibility test; type: functional
[5] = tested on: Acinetobacter baumannii; experiment: Antibacterial activity against Acinetobacter baumannii AB0043 after 16 to 20 hrs by microdilution susceptibility test; type: functional
[6] = tested on: Staphylococcus aureus; experiment: Antibacterial activity against methicillin-resistant Staphylococcus aureus BAA-44 after 16 to 20 hrs by microdilution susceptibility test; type: functional
[7] = tested on: Staphylococcus aureus; experiment: Antibacterial activity against Staphylococcus aureus ATCC 29213 after 16 to 20 hrs by microdilution susceptibility test; type: functional
[8] = tested on: Staphylococcus aureus; experiment: Antibacterial activity against Staphylococcus aureus ATCC 29740 after 16 to 20 hrs by microdilution susceptibility test; type: functional
[9] = tested on: Staphylococcus aureus; experiment: Antibacterial activity against Staphylococcus aureus ATCC 25923 after 16 to 20 hrs by microdilution susceptibility test; type: functional
[10] = tested on: Staphylococcus aureus; experiment: Ratio of MBC to MIC for Staphylococcus aureus BAA-44 after 16 to 20 hrs by microdilution susceptibility test
[11] = tested on: Staphylococcus aureus; experiment: Antibacterial activity against methicillin-resistant Staphylococcus aureus BAA-44 at […] uM after 16 to 20 hrs by microdilution susceptibility test; type: functional
[12] = Induction of pore-formation in synthetic 1-palmitoyl-2-oleoyl-sn-glycero-3-phosphoglycerol vesicles assessed as dye leakage at >500 uM; type: physicochemical
[13] = Toxicity in defibrinated sheep RBC assessed as hemolysis at 25 uM by UV spectrometry; type: cell-based, Ovis aries, Erythrocyte; conditions: defibrinated sheep red blood cells, read-out: Activity
[14] = Induction of pore-formation in synthetic 1-palmitoyl-2-oleoyl-sn-glycero-3-phosphoglycerol vesicles assessed as dye leakage at 25 uM; type: physicochemical
[15] = Induction of pore-formation in synthetic 1-palmitoyl-2-oleoyl-sn-glycero-3-phosphocholine vesicles assessed as dye leakage at 25 uM; type: physicochemical

CCCCCCCCCCCCCCCCCC(=O)Nc1ccc2[nH]c(N)nc2c1
MIC [1]: > 400 µM
MIC [2]: > 400 µM
MIC [3]: > 400 µM
MIC [4]: > 400 µM
MIC [5]: > 400 µM

Nc1nc2cc(NS(=O)(=O)c3ccc4ccccc4c3)ccc2[nH]1
MIC ([6]; Staphylococcus aureus, BAA-44): 100 µM (≈ 33.8 µg/mL)
MIC [7]: 100 µM (≈ 33.8 µg/mL)

CN(C)[C@@H]1C(O)=C(C(N)=O)C(=O)[C@@]2(O)C(O)=C3C(=O)c4c(O)cccc4[C@@](C)(O)[C@H]3C[C@@H]12 [TETRACYCLINE]
MIC [1]: 3.13 µM (≈ 1.39 µg/mL)
MIC [2]: 25 µM (≈ 11.1 µg/mL)
MIC [3]: > 400 µM
MIC [4]: > 400 µM
MIC [5]: 6.25 µM (≈ 2.78 µg/mL)

CCCCCc1ccc(C(=O)Nc2ccccc2)cc1
MIC [1]: > 400 µM
MIC ([6]; Staphylococcus aureus, BAA-44): > 400 µM

GENTAMICIN
MIC [1]: 100 µM
MIC [2]: > 400 µM
MIC [8]: 6.2 µM
MIC [6]: 200 µM
MIC [3]: > 400 µM
MIC [7]: 0.391 µM
MIC [4]: > 400 µM
MIC [5]: 200 µM

COc1cccc(OC)c1C(=O)N[C@@H]1C(=O)N2[C@@H]1SC(C)(C)[C@@H]2C(=O)O [METHICILLIN]
MIC ([6]; Staphylococcus aureus, BAA-44): > 400 µM
MIC [7]: 3.13 µM (≈ 1.19 µg/mL)

CCCCCCC(=O)Nc1ccc2[nH]c(N)nc2c1
MIC [1]: > 400 µM
MIC [2]: > 400 µM
MIC [3]: > 400 µM
MIC [4]: > 400 µM
MIC [5]: 400 µM (≈ 104 µg/mL)

NC[C@H]1O[C@H](O[C@H]2[C@H](O)[C@@H](O[C@H]3O[C@H](CO)[C@@H](O)[C@H](N)[C@H]3O)[C@H](N)C[C@@H]2N)[C@H](N)C[C@@H]1O [TOBRAMYCIN]
MIC [1]: 25 µM (≈ 11.7 µg/mL)
MIC [2]: > 400 µM
MIC [3]: 6.25 µM (≈ 2.92 µg/mL)
MIC [4]: 200 µM (≈ 93.5 µg/mL)
MIC [5]: 200 µM (≈ 93.5 µg/mL)

CCCCCCCCCC(=O)Nc1ccc2[nH]c(N)nc2c1
MIC [1]: 25 µM (≈ 7.56 µg/mL)
MIC [2]: 25 µM (≈ 7.56 µg/mL)
MIC [8]: 12.5 µM (≈ 3.78 µg/mL)
MIC ([6]; Staphylococcus aureus, BAA-44): 25 µM (≈ 7.56 µg/mL)
MIC [3]: 25 µM (≈ 7.56 µg/mL)
MIC [7]: 12.5 µM (≈ 3.78 µg/mL)
MIC [9]: 25 µM (≈ 7.56 µg/mL)
MIC [4]: 25 µM (≈ 7.56 µg/mL)
MIC [5]: 25 µM (≈ 7.56 µg/mL)

[N-]=[N+]=NCCc1ccsc1
MIC [1]: > 400 µM
MIC [3]: > 400 µM
MIC [4]: > 400 µM
MIC [5]: > 400 µM

CN[C@@H]1[C@H](O[C@H]2[C@H](O[C@H]3[C@H](O)[C@@H](O)[C@H](N=C(N)N)[C@@H](O)[C@@H]3N=C(N)N)O[C@@H](C)[C@]2(O)C=O)O[C@@H](CO)[C@H](O)[C@H]1O [STREPTOMYCIN]
MIC [8]: 0.391 µM (≈ 0.227 µg/mL)
MIC ([6]; Staphylococcus aureus, BAA-44): > 200 µM
MIC [7]: 1.56 µM (≈ 0.907 µg/mL)

Nc1nc2cc(NC(=O)c3ccc(-c4ccccc4)cc3)ccc2[nH]1
MIC [1]: > 400 µM
MIC [2]: > 400 µM
MIC [8]: > 400 µM
MIC ([6]; Staphylococcus aureus, BAA-44): > 400 µM
MIC [7]: > 400 µM
MIC [9]: > 400 µM
MIC [5]: > 400 µM

CCCCc1ccc(C(=O)Nc2ccc3[nH]c(N)nc3c2)cc1
MIC [1]: 50 µM (≈ 15.4 µg/mL)
MIC [2]: 100 µM (≈ 30.8 µg/mL)
MIC [8]: 12.5 µM (≈ 3.85 µg/mL)
MIC ([6]; Staphylococcus aureus, BAA-44): 25 µM (≈ 7.71 µg/mL)
MIC [3]: 25 µM (≈ 7.71 µg/mL)
MIC [7]: 25 µM (≈ 7.71 µg/mL)
MIC [9]: 25 µM (≈ 7.71 µg/mL)
MIC [4]: 50 µM (≈ 15.4 µg/mL)
MIC [5]: 25 µM (≈ 7.71 µg/mL)

O=C(O)c1cn(C2CC2)c2cc(N3CCNCC3)c(F)cc2c1=O [CIPROFLOXACIN]
MIC [8]: 0.391 µM (≈ 0.13 µg/mL)
MIC ([6]; Staphylococcus aureus, BAA-44): 12.5 µM (≈ 4.14 µg/mL)
MIC [7]: 0.391 µM (≈ 0.13 µg/mL)

CC1(C)S[C@@H]2[C@H](NC(=O)[C@H](N)c3ccccc3)C(=O)N2[C@H]1C(=O)O [AMPICILLIN]
MIC [1]: > 400 µM
MIC [2]: > 400 µM
MIC [3]: > 400 µM
MIC [4]: > 400 µM
MIC [5]: > 400 µM

CCCCCCc1ccc(C(=O)Nc2ccc3[nH]c(N)nc3c2)cc1
MIC [1]: 50 µM (≈ 16.8 µg/mL)
MIC [2]: 50 µM (≈ 16.8 µg/mL)
MIC [8]: 6.25 µM (≈ 2.1 µg/mL)
MIC ([6]; Staphylococcus aureus, BAA-44): 12.5 µM (≈ 4.21 µg/mL)
MIC [3]: 12.5 µM (≈ 4.21 µg/mL)
MIC [7]: 12.5 µM (≈ 4.21 µg/mL)
MIC [9]: 12.5 µM (≈ 4.21 µg/mL)
MIC [4]: 25 µM (≈ 8.41 µg/mL)
MIC [5]: 12.5 µM (≈ 4.21 µg/mL)

CCCCCCS(=O)(=O)Nc1ccc2[nH]c(N)nc2c1
MIC [8]: 100 µM (≈ 29.6 µg/mL)
MIC ([6]; Staphylococcus aureus, BAA-44): 100 µM (≈ 29.6 µg/mL)
MIC [7]: 100 µM (≈ 29.6 µg/mL)

CC(C)(C)c1ccc(C(=O)Nc2ccc3[nH]c(N)nc3c2)cc1
MIC [1]: 100 µM (≈ 30.8 µg/mL)
MIC [2]: 100 µM (≈ 30.8 µg/mL)
MIC [8]: 50 µM (≈ 15.4 µg/mL)
MIC ([6]; Staphylococcus aureus, BAA-44): 50 µM (≈ 15.4 µg/mL)
MIC [3]: 100 µM (≈ 30.8 µg/mL)
MIC [7]: 50 µM (≈ 15.4 µg/mL)
MIC [9]: 100 µM (≈ 30.8 µg/mL)
MIC [4]: 100 µM (≈ 30.8 µg/mL)
MIC [5]: 50 µM (≈ 15.4 µg/mL)

CCCCCc1ccc(C(=O)Nc2ccc3[nH]c(N)nc3c2)cc1.Cl
MIC [1]: 25 µM
MIC [2]: 25 µM
Ratio [10]: 2
MIC [8]: 6.25 µM
Activity [11]: 99.15%
Activity [12]: > 50%
MBC50 [6]: 5.88 µM
MBC90 [6]: 11.15 µM
MBC ([6]; Staphylococcus aureus, BAA-44): 25 µM
MIC ([6]; Staphylococcus aureus, BAA-44): 12.5 µM
MIC [3]: 12.5 µM
hemolysis at 25 µM [13]: < 1%
Activity [14]: 16%
MIC [7]: 12.5 µM
Activity [15]: 9%
MIC [9]: 12.5 µM
MIC [4]: 25 µM
MIC [5]: 12.5 µM

Nc1nc2cc(NC(=O)c3ccccc3)ccc2[nH]1
hemolysis at 25 µM [13]: < 1%

CCCCCCCCCCCC(=O)Nc1ccc2[nH]c(N)nc2c1
MIC [1]: 25 µM (≈ 8.26 µg/mL)
MIC [2]: 12.5 µM (≈ 4.13 µg/mL)
MIC [8]: 12.5 µM (≈ 4.13 µg/mL)
MIC ([6]; Staphylococcus aureus, BAA-44): 12.5 µM (≈ 4.13 µg/mL)
MIC [3]: 12.5 µM (≈ 4.13 µg/mL)
MIC [7]: 25 µM (≈ 8.26 µg/mL)
MIC [9]: 50 µM (≈ 16.5 µg/mL)
MIC [4]: 25 µM (≈ 8.26 µg/mL)
MIC [5]: 12.5 µM (≈ 4.13 µg/mL)

CN[C@H](CC(C)C)C(=O)N[C@H]1C(=O)N[C@@H](CC(N)=O)C(=O)N[C@H]2C(=O)N[C@H]3C(=O)N[C@H](C(=O)N[C@H](C(=O)O)c4cc(O)cc(O)c4-c4cc3ccc4O)[C@H](O)c3ccc(c(Cl)c3)Oc3cc2cc(c3O[C@@H]2O[C@H](CO)[C@@H](O)[C@H](O)[C@H]2O[C@H]2C[C@](C)(N)[C@H](O)[C@H](C)O2)Oc2ccc(cc2Cl)[C@H]1O [VANCOMYCIN]
MIC [8]: 0.195 µM (≈ 0.283 µg/mL)
MIC ([6]; Staphylococcus aureus, BAA-44): 0.391 µM (≈ 0.567 µg/mL)
MIC [7]: 0.391 µM (≈ 0.567 µg/mL)
MIC [9]: 0.391 µM (≈ 0.567 µg/mL)

[N-]=[N+]=Nc1ccc(C(=O)Nc2ccc3[nH]c(N)nc3c2)cc1
MIC ([6]; Staphylococcus aureus, BAA-44): 400 µM (≈ 117 µg/mL)

CCCCc1cn(-c2ccc(C(=O)Nc3ccc4[nH]c(N)nc4c3)cc2)nn1
MIC ([6]; Staphylococcus aureus, BAA-44): > 400 µM

CCCCCc1ccc(-c2c[nH]c(N)n2)cc1
MIC ([6]; Staphylococcus aureus, BAA-44): 12.5 µM (≈ 2.87 µg/mL)

CCCCCCCCCCc1cn(-c2ccc(C(=O)Nc3ccc4[nH]c(N)nc4c3)cc2)nn1
MIC ([6]; Staphylococcus aureus, BAA-44): > 400 µM

C[C@@H](O)[C@H]1C(=O)N2C(C(=O)O)=C(SCCNC=N)C[C@H]12 [IMIPENEM ANHYDROUS]
MIC [1]: 0.391 µM (≈ 0.117 µg/mL)
MIC [2]: 200 µM (≈ 59.9 µg/mL)
MIC [3]: 50 µM (≈ 15 µg/mL)
MIC [4]: 3.12 µM (≈ 0.935 µg/mL)
MIC [5]: 50 µM (≈ 15 µg/mL)

CCCCCCCc1ccc(C(=O)Nc2ccc3[nH]c(N)nc3c2)cc1
MIC [1]: 50 µM (≈ 17.5 µg/mL)
MIC [2]: 50 µM (≈ 17.5 µg/mL)
MIC [8]: 12.5 µM (≈ 4.38 µg/mL)
MIC ([6]; Staphylococcus aureus, BAA-44): 25 µM (≈ 8.76 µg/mL)
MIC [7]: 25 µM (≈ 8.76 µg/mL)
MIC [9]: 50 µM (≈ 17.5 µg/mL)
MIC [5]: 12.5 µM (≈ 4.38 µg/mL)

From ChEMBL document CHEMBL1159075, “The chemical synthesis and antibiotic activity of a diverse library of 2-aminobenzimidazole small molecules against MRSA and multidrug-resistant A. baumannii” (Bioorg Med Chem, 2010)
